Measured values: patent US12637434B2, “Salt of arylaminoquinazoline-containing compound, and preparation method therefor and use thereof” (priority 2020, dated 2026)
In brackets after ≈: the same amount, converted by molar mass.

Experiments:
[1] = Solubility test in water and pH 2.0 buffer (HPLC); assay type: physicochemical; conditions: for solubility in pH 2.0 buffer compared with Preparation Example 1 (in words): acidic conditions; for solubility: 25 °C, thermodynamic from solid; for Solubility (25° C., mg/mL) Medium: Water / Solubility (25° C., mg/mL) Medium: pH 2.0 buffer / solubility: 25° C.
Experimental: 2. Solubility (Water and pH 2.0 Buffer)
Detection Instrument: Agilent 1260 High Performance Liquid Chromatograph
Detection medium: purified water, pH 2.0 phosphoric acid-disodium hydrogen phosphate buffer
Preparation of control solution: it was taken that an appropriate amount of the referen ce substance of the compound of Formula 1, accurately weighed, dissolved completely by solven t and diluted to 100 μg/mL. 10 μL of the prepared solution was accurately measured and the conte nts of Compound 1 were determined by HPLC.
The salts obtained in Preparation Example 1, Examples 1 to 4 and 9 and Comparative Examples 1 to 2 were tested for solubility in water and pH 2.0 buffer.

Long-term stability test = assay type: physicochemical; conditions: for Purity (5 months) / Appearance / Crystalline form: 40 ± 2° C., 75% ± 5% RH, 5 months; for Appearance / Crystalline form: sealed with polyethylene film; for Purity (0 month): start of long-term stability test
Experimental: An appropriate amount of the salt samples obtained in Examples 1 to 4 and 9 were sealed with a polyethylene film and placed for 5 months under the conditions of 40±2° C. and 75%±5% RH, and a long-term test was carried out.

Solid stability test = assay type: physicochemical; conditions: 40° C./75% RH (open), 7 days
Experimental: The dihydrochloride salt of Example 1 and the dihydrochloride salt tetrahydrate of Example 2 and Example 10 were all placed under the condition of 40° C./75% RH (open) for 7 days to perform the stability test.

[2] = Solubility test in biological vehicles (FaSSIF, FeSSIF, SGF); assay type: physicochemical
Experimental: 9. Determination of Solubility in Biological Vehicles
The preparation procedures of the biological vehicles (SGF, FeSSIF and FaSSIF) used for solubility determination were shown in the following table:
Test method: a sample to be tested was added to a biological vehicles and prepared into a solution or suspension having a target concentration of 10 mg/mL. The resulting solution or suspension was shaken continuously at 200 rpm at 37° C. The suspension was filtered at 0.5 hour and the concentration of the compound in the filtrate was determined by using HPLC.
Solubility Test in Biological Vehicles
The samples of Example 1 and Example 10 (20 mg each) were weighed, and different biological vehicles (2 mL) were added threreto to perform the solubility test, and the results were shown in Table 11.

[3] = Solubility test in conventional organic solvents; assay type: physicochemical
Experimental: Solubility Test in Conventional Organic Solvents
The solubility test of the sample of Preparation Example 1 in different organic solvents was carried out by using the method in the Pharmacopoeia (Volume II, the general examples), and the solubility of the sample of Example 1 in different organic solvents was estimated using the gravimetric method, and the results were shown in Table 15.

human melanoma A375 = test: Pharmacodynamic experiment of human melanoma A375 nude mice xenograft tumor model; assay type: in vivo, nu/nu female nude mice; conditions: once a day, 20 days; for Tumor weight / Inhibition rate %: Day 21; for Inhibition rate %: tumor weight
Experimental: Pharmacodynamic Experiment of Human Melanoma A375 Nude Mice Xenograft Tumor Model
A well-growing human melanoma A375 cell suspension was inoculated into the subcutaneous tissue of the forelimb axilla of nu/nu female nude mice in an inoculation volume of 0.1 mL containing approximately 1×10^7 tumor cells. When the tumor volume grew to 100 mm^3 or more, the mice with good tumor growth were selected, and the animals were evenly divided into 5 groups according to the tumor volume: a Vehicle group, a Vandetanib 12.5 mg/kg group, a Vandetanib 25 mg/kg group, an Example 1 sample 12.5 mg/kg group, and an Example 1 sample 25 mg/kg group, and there were 6 animals in each group. The Vehicle group was orally administered with distilled water, and the remaining groups were orally administered with the corresponding tested drugs in a dosing volume of 20 mL/kg, once a day, and continuously administered for 20 days. The animals were housed normally after administration, and the anti-tumor effect of the tested drugs was dynamically observed by using the method of measuring the diameter of the tumors. At the end of the experiment (Day 21), the animals were sacrificed, and the tumors, were stripped and weighed, and the tumor inhibition rate was calculated.

[4] = pH 2.0 phosphoric acid-disodium hydrogen phosphate buffer
[5] = purified water, water, purified water, read-out: Solubility (25° C., mg/mL) Medium: Water
[6] = 0.5 h, 37° C., 200 rpm, target concentration 10 mg/mL, unit not given

COc1cc2c(Nc3ccc(Br)cc3F)ncnc2cc1OCCCCN(C)C [Comparative Example 1]
Solubility (25° C., mg/mL) Medium: Water ([1]; purified water): Jelly-like, solubility | Solubility (25° C., mg/mL) Medium: Water ([1]; purified water, listed as monohydrochloride salt): jelly-like

COc1cc2c(Nc3ccc(Br)cc3F)ncnc2cc1OCCCCN(C)C [Comparative Example 2]
Solubility (25° C., mg/mL) Medium: Water ([1]; purified water): Jelly-like, solubility | Solubility (25° C., mg/mL) Medium: Water ([1]; purified water, listed as malate salt): jelly-like

COc1cc2c(Nc3ccc(Br)cc3F)ncnc2cc1OCCCCN(C)C [Example 2]
Purity (5 months) (Long-term stability test): 98.56% | Appearance (Long-term stability test): White powder | Crystalline form (Long-term stability test): Unchanged | Purity (0 month) (Long-term stability test): 98.55% | Solubility (25° C., mg/mL) Medium: pH 2.0 buffer [1, 4]: 7.69 mg/mL | Solubility (25° C., mg/mL) Medium: Water ([1]; purified water): 34.32 mg/mL (≈ 74.1 mM) | solubility in pH 2.0 buffer compared with Preparation Example 1 (in words) [1]: slightly lower | Crystalline form (Solid stability test): Unchanged | Purity (Solid stability test): 98.54%

COc1cc2c(Nc3ccc(Br)cc3F)ncnc2cc1OCCCCN(C)C [Example 3]
Purity (5 months) (Long-term stability test): 98.84% | Appearance (Long-term stability test): White powder | Crystalline form (Long-term stability test): Unchanged | Purity (0 month) (Long-term stability test): 98.83% | Solubility (25° C., mg/mL) Medium: pH 2.0 buffer [1, 4]: 5.00 mg/mL | Solubility (25° C., mg/mL) Medium: Water ([1]; purified water): 10.91 mg/mL (≈ 23.5 mM) | solubility in pH 2.0 buffer compared with Preparation Example 1 (in words) [1]: slightly lower

COc1cc2c(Nc3ccc(Br)cc3F)ncnc2cc1OCCCCN(C)C.O=C(O)/C=C\C(=O)O [Example 4]
Purity (5 months) (Long-term stability test): 96.41% | Appearance (Long-term stability test): White powder | Crystalline form (Long-term stability test): Unchanged | Purity (0 month) (Long-term stability test): 96.72% | solubility in pH 2.0 buffer compared with Preparation Example 1 (in words) [1]: slightly better | solubility ([1]; pH 2.0 phosphoric acid-disodium hydrogen phosphate buffer, pH 2, aqueous buffer, pH 2.0 phosphoric acid-disodium hydrogen phosphate buffer, read-out: Solubility (25° C., mg/mL) Medium: pH 2.0 buffer): 12.5 mg/mL | solubility [1, 5]: 13.7 mg/mL

COc1cc2c(Nc3ccc(Br)cc3F)ncnc2cc1OCCCCN(C)C.O=C(O)C(=O)O [Example 9]
Purity (5 months) (Long-term stability test): 99.34% | Appearance (Long-term stability test): White powder | Crystalline form (Long-term stability test): Unchanged | Purity (0 month) (Long-term stability test): 99.38% | solubility [1, 5]: 2.89 mg/mL

COc1cc2c(Nc3ccc(Br)cc3F)ncnc2cc1OCCCCN(C)C [Example 10]
Crystalline form (Solid stability test): Unchanged | Purity (Solid stability test): 99.74% | Solubility in FeSSIF (pH 5.0) ([2]; 0.5 h, 37° C., 200 rpm, target concentration 10 mg/mL, unit inferred): 7.3 mg/mL | Solubility in FaSSIF (pH 6.5) [2, 6]: solution, >10 | Solubility in SGF (pH 1.2) [2, 6]: solution, >10 | solubility in biological vehicles with different pH (in words) ([2]; FaSSIF, FeSSIF, SGF): good solubility

COc1cc2c(Nc3ccc(Br)cc3F)ncnc2cc1OCCCCN(C)C [Preparation Example 1, 4-(4-bromo-2-fluoroanilino)-6-methoxy-7-[(4-N,N-dimethylamino)butoxy]quinazoline]
Solubility (25° C., mg/mL) Medium: Water ([1]; purified water): 0.036 mg/mL (≈ 0.0777 mM) | water-solubility (in words) ([1]; water): very poor water-solubility | Solubility (mg/mL) in Acetone ([3]; Acetone, Preparation Example 1 by Pharmacopoeia method, Example 1 estimated by gravimetric method): 44.04 mg/mL (≈ 95 mM) | Solubility (mg/mL) in Acetonitrile ([3]; Acetonitrile, Preparation Example 1 by Pharmacopoeia method, Example 1 estimated by gravimetric method): 10.66 mg/mL (≈ 23 mM) | Solubility (mg/mL) in Dichloromethane ([3]; Dichloromethane, Preparation Example 1 by Pharmacopoeia method, Example 1 estimated by gravimetric method): 30.49 mg/mL (≈ 65.8 mM) | Solubility (mg/mL) in Ethanol ([3]; Ethanol, Preparation Example 1 by Pharmacopoeia method, Example 1 estimated by gravimetric method): 205.2 mg/mL (≈ 443 mM) | Solubility (mg/mL) in Ethyl acetate ([3]; Ethyl acetate, Preparation Example 1 by Pharmacopoeia method, Example 1 estimated by gravimetric method): 30.38 mg/mL (≈ 65.6 mM) | Solubility (mg/mL) in Isopropanol ([3]; Isopropanol, Preparation Example 1 by Pharmacopoeia method, Example 1 estimated by gravimetric method): 51.05 mg/mL (≈ 110 mM) | Solubility (mg/mL) in Methanol ([3]; Methanol, Preparation Example 1 by Pharmacopoeia method, Example 1 estimated by gravimetric method): >60 mg/mL | Solubility (mg/mL) in Tetrahydrofuran ([3]; Tetrahydrofuran, Preparation Example 1 by Pharmacopoeia method, Example 1 estimated by gravimetric method): 201.4 mg/mL (≈ 435 mM) | solubility ([3]; organic solvent or mixture, thermodynamic from solid, read-out: solubility in various conventional organic solvents (all)): > 10 mg/mL

COc1cc2c(Nc3ccc(Br)cc3F)ncnc2cc1OCC1CCN(C)CC1 [Vandetanib, reference compound]
Animal number (Survival/total) (human melanoma A375; 12.5 mg/kg oral): 6/6 | Tumor weight (human melanoma A375; 12.5 mg/kg oral): 2.89 ± 0.67 g | Inhibition rate % (human melanoma A375; 12.5 mg/kg oral): 15.18% | Animal number (Survival/total) (human melanoma A375; 25 mg/kg oral): 6/6 | Tumor weight (human melanoma A375; 25 mg/kg oral): 1.90 ± 0.93 g | Inhibition rate % (human melanoma A375; 25 mg/kg oral): 44.15%
